The values that follow come from patent US8076061B2, “Method and composition for cancer diagnosis and treatment” (Ascentgene, Inc., priority 2007, dated 2011).

Assay [1] deals with PC4 (Homo sapiens, UniProt P53999). In words: Interaction of AH peptide with PC4. The assay is classed as binding. Conditions: 15 amino acid peptide.
Assay [2] concerns PC4-dependent transcription (template pG5HM). Put plainly: In vitro transcription assay reconstituted with purified general transcription factors. The assay is classed as biochemical. From the text:
FIGS. 3A, 3B and 3C show the functional analyses of PC4 mutations in different assays.
In vitro transcription assay was reconstituted with purified general transcription factors, including TFIIA, TFIIB, TFIID, TFIIF, TFIIH and RNA polymerase II, either purified from HeLa cells or from a recombinant source. This system can be activated in a PC4 and activator-dependent manner. In addition to the transcription factors, the system also contained one activator-responsive template, a basic template (activator-independent), and ^32P-CTP. After incubation at 30° C. for 1 hr, the newly synthesized RNAs were extracted and analyzed on a denatured polyacrylamide gel and visualized by autoradiography.

Assay [3] has as its system transcription factor Sp1 (Gal4-Sp1 fusion protein). Put plainly: Protein array assay (UPA), interaction with Sp1. The assay is classed as binding. Conditions: FIG. 4E. As for the experimental part: (§1) The protein array assay is based on the “Universal Protein Array” method, also called UPA [Ge, H. (2000) UPA, a universal protein array system for quantitative detection of protein-protein, protein-DNA, protein-RNA and protein-ligand interactions. Nucleic Acids Res. 28, e3]. Purified proteins were validated, normalized and arrayed on a nitrocellulose sheet. Each spot was arrayed in 1 mm diameter containing 10-100 ng of protein depending on size. Targeted proteins that interacted with the PC4 proteins on the array were detected by specific antibodies such as antibodies against transcription factor TFIIA, Gal4, or Sp1. For protein-DNA interaction, probe DNA was labeled with ^32P-dCTP and the bound DNA was monitored by autoradiography.

For assay [4], the target named is T1, transcription factor TFIIA (Homo sapiens, UniProt P52655+P52657).
T1 sequence (P52655 1-376): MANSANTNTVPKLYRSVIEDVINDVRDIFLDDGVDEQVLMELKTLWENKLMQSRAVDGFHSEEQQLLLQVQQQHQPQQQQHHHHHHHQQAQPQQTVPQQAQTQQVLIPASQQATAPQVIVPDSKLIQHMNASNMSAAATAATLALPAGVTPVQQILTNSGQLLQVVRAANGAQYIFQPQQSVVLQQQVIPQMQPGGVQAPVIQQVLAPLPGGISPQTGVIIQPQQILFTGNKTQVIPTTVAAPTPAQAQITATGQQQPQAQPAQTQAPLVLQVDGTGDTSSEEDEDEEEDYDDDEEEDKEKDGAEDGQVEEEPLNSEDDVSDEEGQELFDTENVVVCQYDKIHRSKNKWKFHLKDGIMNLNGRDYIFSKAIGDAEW
T1 sequence (P52657 1-109): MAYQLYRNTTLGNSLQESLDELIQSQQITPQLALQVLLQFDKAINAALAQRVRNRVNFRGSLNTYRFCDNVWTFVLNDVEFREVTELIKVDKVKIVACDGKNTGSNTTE
Put plainly: Protein array assay (UPA), interaction with TFIIA. The assay is classed as binding. The following applies: FIG. 4C. As for the experimental part:
as §1

Assay [5] has as its system ssDNA. Put plainly: Protein array assay (UPA), protein-DNA interaction. The assay is classed as binding. Conditions: FIG. 4F. As for the experimental part:
as §1

Assay [6] deals with 64 bp dsDNA probe from the adeno major late promoter region. Put plainly: Electrophoresis mobility shift assay (EMSA), DNA binding activity of PC4 proteins. Conditions: purified recombinant PC4 mutant vs wild type, FIG. 3B. As for the experimental part: EMSA was used to determine the ds-DNA binding activity of PC4 protein and was performed in a 20 ul of reaction containing […] of purified PC4 protein and ^32P-labeled 64 bp dsDNA probe from the adeno major late promoter region. After incubated at 4° C. for 1 hr, the reaction mixture was analyzed on an 8% polyacrylamide gel. The mobilized PC4-dsDNA complex was visualized using autoradiography.
Background: In EMSA bound probe runs differently from free probe, usually more slowly.

With “ELQEL′QELQALLQQQ (ELQELQELQALLQQQ; AH15)”, the “interaction with PC4 (mimics an activation domain)” value in assay [1] is “interacting strongly”. For the same substance, the “transcription activation, PC4-dependent” value in assay [2] (AH fused with a Gal4 DNA binding domain) is reported as “dramatic transcription activation”.
Turning to “F77P: recombinant human PC4 protein with single amino acid change F77P”, the “interaction of PC4 with Sp1” value in assay [3] is “enhances”. The “interaction of PC4 with TFIIA” value in assay [4] was “enhances”. For the same substance, the PC4 transcription activity entry in assay [2] (purified recombinant PC4 mutant vs wild type, FIG. 3C) is listed as “abolishes”. Besides, the “ssDNA binding activity of PC4” value in assay [5] is on record as “critical for the ssDNA binding activity”. Also, in assay [6], the “PC4's DNA binding activity” value was “abolishes”.
